Laboratory results reported in PubChem BioAssay (NCI).
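How tested: cells in 96-well plates exposed to compound for 48 hours at five concentrations. The concentration for full growth arrest is given as TGI.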

Assays:
Assay in all cases: NCI anticancer screen, dose series, 48 h
T-47D breast = test system: T-47D breast
UACC-62 melanoma = test system: UACC-62 melanoma
MALME-3M melanoma = test system: MALME-3M melanoma
LOX IMVI melanoma = test system: LOX IMVI melanoma
SW-620 colon = test system: SW-620 colon
NCI-H226 lung = test system: NCI-H226 lung
IGROV1 ovarian = test system: IGROV1 ovarian
MDA-MB-435 = test system: MDA-MB-435
HCT-116 colon = test system: HCT-116 colon
OVCAR-5 ovarian = test system: OVCAR-5 ovarian
DU-145 prostate = test system: DU-145 prostate
HT29 colon = test system: HT29 colon
OVCAR-4 ovarian = test system: OVCAR-4 ovarian
UO-31 renal = test system: UO-31 renal
NCI-H23 lung = test system: NCI-H23 lung
RPMI-8226 leukemia = test system: RPMI-8226 leukemia
U251 CNS = test system: U251 CNS
UACC-257 melanoma = test system: UACC-257 melanoma
SK-OV-3 ovarian = test system: SK-OV-3 ovarian
SK-MEL-5 melanoma = test system: SK-MEL-5 melanoma
MOLT-4 leukemia = test system: MOLT-4 leukemia
HCC-2998 colon = test system: HCC-2998 colon
OVCAR-8 ovarian = test system: OVCAR-8 ovarian
SF-268 CNS = test system: SF-268 CNS
SK-MEL-28 melanoma = test system: SK-MEL-28 melanoma
NCI-H460 lung = test system: NCI-H460 lung
TK-10 renal = test system: TK-10 renal
SN12C renal = test system: SN12C renal
KM12 colon = test system: KM12 colon
A498 renal = test system: A498 renal
A549 NSCLC = test system: A549 NSCLC
COLO 205 colon = test system: COLO 205 colon
HL-60(TB) leukemia = test system: HL-60(TB) leukemia
HS 578T breast = test system: HS 578T breast
CCRF-CEM leukemia = test system: CCRF-CEM leukemia
HOP-62 NSCLC = test system: HOP-62 NSCLC
RXF 393 renal = test system: RXF 393 renal
MDA-MB-231 breast = test system: MDA-MB-231 breast
ACHN renal = test system: ACHN renal
NCI/ADR-RES ovarian = test system: NCI/ADR-RES ovarian
EKVX NSCLC = test system: EKVX NSCLC
SR leukemia = test system: SR leukemia
HCT-15 colon = test system: HCT-15 colon
SF-295 CNS = test system: SF-295 CNS
786-0 renal = test system: 786-0 renal
HOP-92 NSCLC = test system: HOP-92 NSCLC
M14 melanoma = test system: M14 melanoma
MCF7 breast = test system: MCF7 breast
SNB-75 CNS = test system: SNB-75 CNS
SF-539 CNS = test system: SF-539 CNS
SNB-19 CNS = test system: SNB-19 CNS
PC-3 prostate = test system: PC-3 prostate
OVCAR-3 ovarian = test system: OVCAR-3 ovarian
SK-MEL-2 melanoma = test system: SK-MEL-2 melanoma
CAKI-1 renal = test system: CAKI-1 renal
NCI-H522 lung = test system: NCI-H522 lung
K-562 leukemia = test system: K-562 leukemia

Question: How did the TGI (T-47D breast) turn out when `c1ccc(CN2CCC(Nc3ccccc3)(c3nnnn3Cc3ccccc3)CC2)cc1` was run?
Answer: 72.4 µM

Question: And the TGI (UACC-62 melanoma)?
Answer: > 100 µM

Question: What about the TGI (MALME-3M melanoma) of the same compound?
Answer: 34.9 µM

Question: And the TGI (LOX IMVI melanoma)?
Answer: 43.5 µM

Question: What about the TGI (SW-620 colon) of the same compound?
Answer: 60.6 µM

Question: What about the TGI (NCI-H226 lung) of the same compound?
Answer: > 100 µM

Question: What about the TGI (IGROV1 ovarian) of the same compound?
Answer: > 100 µM

Question: And the TGI (MDA-MB-435)?
Answer: > 100 µM

Question: And the TGI (HCT-116 colon)?
Answer: 53.4 µM

Question: What about the TGI (OVCAR-5 ovarian) of the same compound?
Answer: 76.1 µM

Question: What about the TGI (DU-145 prostate) of the same compound?
Answer: > 100 µM

Question: What about the TGI (HT29 colon) of the same compound?
Answer: 24.2 µM

Question: What about the TGI (OVCAR-4 ovarian) of the same compound?
Answer: > 100 µM

Question: What about the TGI (UO-31 renal) of the same compound?
Answer: 26.6 µM

Question: What about the TGI (NCI-H23 lung) of the same compound?
Answer: > 100 µM

Question: What about the TGI (RPMI-8226 leukemia) of the same compound?
Answer: > 100 µM

Question: What about the TGI (U251 CNS) of the same compound?
Answer: > 100 µM

Question: What about the TGI (UACC-257 melanoma) of the same compound?
Answer: 34.5 µM

Question: And the TGI (SK-OV-3 ovarian)?
Answer: > 100 µM

Question: And the TGI (SK-MEL-5 melanoma)?
Answer: 25.6 µM

Question: And the TGI (MOLT-4 leukemia)?
Answer: > 100 µM

Question: What about the TGI (HCC-2998 colon) of the same compound?
Answer: 10.5 µM

Question: What about the TGI (OVCAR-8 ovarian) of the same compound?
Answer: > 100 µM

Question: And the TGI (SF-268 CNS)?
Answer: > 100 µM

Question: And the TGI (SK-MEL-28 melanoma)?
Answer: 36.5 µM

Question: And the TGI (NCI-H460 lung)?
Answer: 53.9 µM

Question: What about the TGI (TK-10 renal) of the same compound?
Answer: > 100 µM

Question: What about the TGI (SN12C renal) of the same compound?
Answer: > 100 µM

Question: And the TGI (KM12 colon)?
Answer: 33.3 µM

Question: What about the TGI (A498 renal) of the same compound?
Answer: 63.8 µM

Question: And the TGI (A549 NSCLC)?
Answer: > 100 µM

Question: And the TGI (COLO 205 colon)?
Answer: 28.9 µM

Question: And the TGI (HL-60(TB) leukemia)?
Answer: 25.9 µM

Question: What about the TGI (HS 578T breast) of the same compound?
Answer: > 100 µM

Question: And the TGI (CCRF-CEM leukemia)?
Answer: 88.3 µM

Question: And the TGI (HOP-62 NSCLC)?
Answer: > 100 µM

Question: What about the TGI (RXF 393 renal) of the same compound?
Answer: 73.8 µM

Question: And the TGI (MDA-MB-231 breast)?
Answer: 88.9 µM

Question: What about the TGI (ACHN renal) of the same compound?
Answer: > 100 µM

Question: And the TGI (NCI/ADR-RES ovarian)?
Answer: > 100 µM

Question: And the TGI (EKVX NSCLC)?
Answer: > 100 µM

Question: What about the TGI (SR leukemia) of the same compound?
Answer: 93.2 µM

Question: What about the TGI (HCT-15 colon) of the same compound?
Answer: 97.9 µM

Question: What about the TGI (SF-295 CNS) of the same compound?
Answer: 44.8 µM

Question: And the TGI (786-0 renal)?
Answer: 60.6 µM

Question: And the TGI (HOP-92 NSCLC)?
Answer: 34.5 µM

Question: What about the TGI (M14 melanoma) of the same compound?
Answer: 38.5 µM

Question: And the TGI (MCF7 breast)?
Answer: 88.2 µM

Question: And the TGI (SNB-75 CNS)?
Answer: 92.6 µM

Question: What about the TGI (SF-539 CNS) of the same compound?
Answer: 41.5 µM

Question: And the TGI (SNB-19 CNS)?
Answer: > 100 µM

Question: What does the source list for `COc1ccc(OC)c(SC(CC(=O)c2ccccc2)c2ccccc2)c1` (stereo not given)?
Answer: TGI (T-47D breast): 35.8 µM; TGI (UACC-62 melanoma): 30.7 µM; TGI (MALME-3M melanoma): 38.5 µM; TGI (SW-620 colon): 12.2 µM; TGI (NCI-H226 lung): 31.9 µM; TGI (PC-3 prostate): 33.9 µM; TGI (IGROV1 ovarian): 23.1 µM; TGI (MDA-MB-435): 26.7 µM; TGI (HCT-116 colon): 11 µM; TGI (OVCAR-5 ovarian): 33.5 µM; TGI (DU-145 prostate): 21.9 µM; TGI (HT29 colon): 35.8 µM; TGI (OVCAR-3 ovarian): 16.4 µM; TGI (OVCAR-4 ovarian): > 100 µM; TGI (UO-31 renal): 24.7 µM; TGI (NCI-H23 lung): 33.3 µM; TGI (U251 CNS): 31 µM; TGI (UACC-257 melanoma): 30.7 µM; TGI (SK-OV-3 ovarian): 40.3 µM; TGI (SK-MEL-5 melanoma): 28.7 µM; TGI (MOLT-4 leukemia): > 100 µM; TGI (SK-MEL-2 melanoma): 36.1 µM; TGI (HCC-2998 colon): 31.6 µM; TGI (OVCAR-8 ovarian): 28.7 µM; TGI (SF-268 CNS): 40.2 µM; TGI (SK-MEL-28 melanoma): 32.6 µM; TGI (CAKI-1 renal): 28.5 µM; TGI (NCI-H460 lung): > 100 µM; TGI (TK-10 renal): 32.7 µM; TGI (SN12C renal): 40.6 µM; TGI (KM12 colon): 15.2 µM; TGI (A549 NSCLC): 91.7 µM; TGI (COLO 205 colon): 37.3 µM; TGI (HL-60(TB) leukemia): > 100 µM; TGI (HS 578T breast): 68.3 µM; TGI (CCRF-CEM leukemia): > 100 µM; TGI (HOP-62 NSCLC): 39.8 µM; TGI (RXF 393 renal): 31.1 µM; TGI (NCI-H522 lung): 29.2 µM; TGI (MDA-MB-231 breast): 25.7 µM; TGI (ACHN renal): 39 µM; TGI (NCI/ADR-RES ovarian): 32.4 µM; TGI (EKVX NSCLC): 31.1 µM; TGI (SR leukemia): > 100 µM; TGI (HCT-15 colon): 35.4 µM; TGI (SF-295 CNS): 31.6 µM; TGI (786-0 renal): 29.2 µM; TGI (HOP-92 NSCLC): > 100 µM; TGI (M14 melanoma): 31 µM; TGI (MCF7 breast): 13.7 µM; TGI (SNB-75 CNS): 33.6 µM; TGI (SF-539 CNS): 15.7 µM; TGI (K-562 leukemia): > 100 µM; TGI (SNB-19 CNS): 27.8 µM
